Experimental data published in publication PMC10609273, “Radiosynthesis and Early Evaluation of a Positron Emission Tomography Imaging Probe [^18F]AGAL Targeting Alpha-Galactosidase A Enzyme for Fabry Disease” (Molecules, 2023).

Experiments:
Test in all cases: Reversible CYP inhibition in pooled HLMs
Format in all cases: in vitro ADME
CYP1A2 = target: T1, CYP1A2 (Homo sapiens, UniProt P05177); conditions: 30 µM compound, substrate phenacetin
T1 construct: from tissue; host or cells: pooled human liver microsomes (n = 200)
T1 sequence (P05177 1-516): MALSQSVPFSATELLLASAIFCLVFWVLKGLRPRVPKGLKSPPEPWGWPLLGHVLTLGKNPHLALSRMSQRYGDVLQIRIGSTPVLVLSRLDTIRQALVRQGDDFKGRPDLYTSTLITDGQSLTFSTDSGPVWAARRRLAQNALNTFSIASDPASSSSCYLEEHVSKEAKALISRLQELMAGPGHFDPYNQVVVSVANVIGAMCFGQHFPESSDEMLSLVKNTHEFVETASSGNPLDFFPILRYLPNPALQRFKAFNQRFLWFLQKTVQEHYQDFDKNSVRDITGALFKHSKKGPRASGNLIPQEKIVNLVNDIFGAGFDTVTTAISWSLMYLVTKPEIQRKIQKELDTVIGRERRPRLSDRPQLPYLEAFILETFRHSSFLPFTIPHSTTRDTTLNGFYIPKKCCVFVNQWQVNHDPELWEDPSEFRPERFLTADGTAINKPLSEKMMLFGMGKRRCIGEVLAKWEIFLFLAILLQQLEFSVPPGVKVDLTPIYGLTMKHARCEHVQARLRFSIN
Method: (§1) All chemicals and reagents including control compounds were purchased from commercial sources such as Sigma-Aldrich or Toronto Research Chemicals. The test article was tested for reversible inhibition of CYPs in human liver microsomes (HLM) (0.2 mg/mL protein) at a concentration range of 0–30 μM. Each condition was incubated in duplicate. The test article (0–30 μM), NADPH, and the CYP-selective probe substrate were incubated in a 96-well plate at 37 °C in 0.1 M potassium phosphate buffer, pH 7.4. The reactions were initiated by adding the HLMs. The total reaction volume was 100 μL.
(§2) After the incubation period (10 min for CYP1A2, 2B6, and 2C9; 15 min for CYP2C19; and 4 min for CYP2C8 and 2D6 to accommodate linear kinetic conditions) at 37 °C, the reactions were terminated by the addition of 100 μL of ice-cold acetonitrile-containing carbutamide as an IS, then centrifuged at 2500× g for 10 min at 2 °C. A 150 μL aliquot of supernatant for each CYP assay, except for CYP1A2, was then transferred to a new plate for analysis. For CYP1A2, 80 μL of supernatant was transferred to the plate and further diluted with 80 μL of water before analysis. All samples were analyzed with liquid chromatography with tandem mass spectrometry (LC–MS/MS).

CYP2B6 = target: T2, CYP2B6 (Homo sapiens, UniProt P20813); conditions: 30 µM compound, substrate bupropion
T2 construct: from tissue; host or cells: pooled human liver microsomes (n = 200)
T2 sequence (P20813 1-491): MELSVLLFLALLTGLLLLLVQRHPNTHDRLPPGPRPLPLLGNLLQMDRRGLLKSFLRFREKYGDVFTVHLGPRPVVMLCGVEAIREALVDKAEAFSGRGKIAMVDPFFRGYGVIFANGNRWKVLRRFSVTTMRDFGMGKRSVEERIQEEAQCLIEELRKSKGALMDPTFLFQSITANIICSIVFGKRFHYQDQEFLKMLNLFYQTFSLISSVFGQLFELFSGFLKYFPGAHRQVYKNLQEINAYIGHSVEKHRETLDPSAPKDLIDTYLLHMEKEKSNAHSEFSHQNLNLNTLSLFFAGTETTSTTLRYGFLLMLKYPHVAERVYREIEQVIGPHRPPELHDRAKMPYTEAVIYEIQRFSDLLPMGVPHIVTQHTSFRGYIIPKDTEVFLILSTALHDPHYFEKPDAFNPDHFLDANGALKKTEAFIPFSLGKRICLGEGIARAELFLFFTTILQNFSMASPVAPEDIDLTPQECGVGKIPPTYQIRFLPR
Method: as §1, §2

CYP2C19 = target: T3, CYP2C19 (Homo sapiens, UniProt P33261); conditions: 30 µM compound, substrate S-mephenytoin
T3 construct: from tissue; host or cells: pooled human liver microsomes (n = 200)
T3 sequence (P33261 whole entry): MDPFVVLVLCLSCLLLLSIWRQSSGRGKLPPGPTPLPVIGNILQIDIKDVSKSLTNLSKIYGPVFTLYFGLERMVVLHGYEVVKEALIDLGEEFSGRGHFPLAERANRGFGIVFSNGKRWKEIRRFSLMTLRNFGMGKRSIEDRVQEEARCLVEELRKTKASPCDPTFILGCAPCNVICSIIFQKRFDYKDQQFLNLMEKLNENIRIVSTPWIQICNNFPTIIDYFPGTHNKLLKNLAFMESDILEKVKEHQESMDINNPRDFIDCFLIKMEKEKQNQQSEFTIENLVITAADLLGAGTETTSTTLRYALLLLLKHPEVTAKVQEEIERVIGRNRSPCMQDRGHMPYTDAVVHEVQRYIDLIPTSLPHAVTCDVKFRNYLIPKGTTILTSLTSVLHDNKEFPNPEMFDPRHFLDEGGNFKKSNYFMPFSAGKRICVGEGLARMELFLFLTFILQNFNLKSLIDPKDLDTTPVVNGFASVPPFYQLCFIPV
Method: as §1, §2

CYP2C8 = target: T4, CYP2C8 (Homo sapiens, UniProt P10632); conditions: 30 µM compound, substrate amodiaquine
T4 construct: from tissue; host or cells: pooled human liver microsomes (n = 200)
T4 sequence (P10632 1-490): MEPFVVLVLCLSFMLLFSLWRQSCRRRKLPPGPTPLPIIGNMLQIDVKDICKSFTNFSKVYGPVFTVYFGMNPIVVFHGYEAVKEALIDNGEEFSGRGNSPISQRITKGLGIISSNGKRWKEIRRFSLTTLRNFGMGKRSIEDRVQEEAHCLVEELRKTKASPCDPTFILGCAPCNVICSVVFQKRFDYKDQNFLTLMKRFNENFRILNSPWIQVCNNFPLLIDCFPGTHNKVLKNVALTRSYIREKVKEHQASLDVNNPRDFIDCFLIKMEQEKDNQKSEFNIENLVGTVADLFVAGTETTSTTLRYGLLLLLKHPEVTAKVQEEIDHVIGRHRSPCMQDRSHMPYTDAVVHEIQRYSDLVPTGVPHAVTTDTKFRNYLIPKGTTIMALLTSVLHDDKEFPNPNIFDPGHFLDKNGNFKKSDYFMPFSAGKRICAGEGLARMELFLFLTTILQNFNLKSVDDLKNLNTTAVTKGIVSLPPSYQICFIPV
Method: as §1, §2

CYP2C9 = target: T5, CYP2C9 (Homo sapiens, UniProt P11712); conditions: 30 µM compound, substrate diclofenac
T5 construct: from tissue; host or cells: pooled human liver microsomes (n = 200)
T5 sequence (P11712 whole entry): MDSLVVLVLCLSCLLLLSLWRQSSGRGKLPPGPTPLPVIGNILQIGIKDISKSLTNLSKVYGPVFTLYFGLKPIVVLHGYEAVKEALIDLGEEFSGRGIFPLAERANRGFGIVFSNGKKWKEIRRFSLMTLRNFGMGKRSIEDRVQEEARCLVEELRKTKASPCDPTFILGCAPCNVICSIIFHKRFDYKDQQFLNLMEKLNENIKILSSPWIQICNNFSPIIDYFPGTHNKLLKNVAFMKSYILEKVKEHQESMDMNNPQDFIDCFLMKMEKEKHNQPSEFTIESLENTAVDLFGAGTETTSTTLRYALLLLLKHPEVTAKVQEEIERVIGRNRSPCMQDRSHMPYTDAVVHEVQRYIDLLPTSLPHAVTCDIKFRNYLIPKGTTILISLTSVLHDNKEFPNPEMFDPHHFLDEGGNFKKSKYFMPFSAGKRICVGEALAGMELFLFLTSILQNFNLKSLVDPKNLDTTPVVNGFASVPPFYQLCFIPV
Method: as §1, §2

CYP2D6 = target: T6, CYP2D6 (Homo sapiens, UniProt P10635); conditions: 30 µM compound, substrate dextromethorphan
T6 construct: from tissue; host or cells: pooled human liver microsomes (n = 200)
T6 sequence (P10635 whole entry): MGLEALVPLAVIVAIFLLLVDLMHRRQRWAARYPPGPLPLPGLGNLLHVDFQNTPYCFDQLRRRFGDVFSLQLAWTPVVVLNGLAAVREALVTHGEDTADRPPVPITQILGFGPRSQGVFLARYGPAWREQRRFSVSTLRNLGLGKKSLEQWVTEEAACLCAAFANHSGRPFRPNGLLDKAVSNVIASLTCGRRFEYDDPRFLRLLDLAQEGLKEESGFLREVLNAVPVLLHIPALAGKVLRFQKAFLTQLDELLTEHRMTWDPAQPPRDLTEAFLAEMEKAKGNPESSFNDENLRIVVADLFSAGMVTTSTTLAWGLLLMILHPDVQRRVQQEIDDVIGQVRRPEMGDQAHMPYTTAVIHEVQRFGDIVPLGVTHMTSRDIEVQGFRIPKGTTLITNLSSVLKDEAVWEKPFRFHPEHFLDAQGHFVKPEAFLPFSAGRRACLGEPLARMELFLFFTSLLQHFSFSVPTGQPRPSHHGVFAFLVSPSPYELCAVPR
Method: as §1, §2

O=C(CCCCCCCn1cc(CCCF)nn1)N1[C@@H]2[C@H](O)[C@@H](O)[C@@H](O)[C@@H](CO)[C@@H]21 [AGAL]
no significant loss of CYP activity: reversible inhibition of CYP1A2 activity (CYP1A2) | reversible inhibition of CYP2B6 activity (CYP2B6) | reversible inhibition of CYP2C19 activity (CYP2C19) | reversible inhibition of CYP2C8 activity (CYP2C8) | reversible inhibition of CYP2C9 activity (CYP2C9) | reversible inhibition of CYP2D6 activity (CYP2D6)
